Laboratory results as given in patent publication US8410164B2, “Reagent for measurement of active oxygen” (The University of Tokyo, priority 2008, dated 2013).
One block for each compound: values may come before it.

What was measured:
HeLa cells = experiment: Imaging of reactive oxygen species in living HeLa cells after sodium hypochlorite stimulation; type: cell-based; settings: 1.0 μM loaded for 15 minutes, 500 μM sodium hypochlorite
Protocol: Imaging of reactive oxygen species in living cells was performed by using the compound 5 (APC). The compound 6 (APC-AM, 1.0 μM, 0.1% dimethylformamide (cosolvent)), which corresponds to APC esterified to increase cell membrane permeability, was loaded on the HeLa cells for 15 minutes by addition to the medium of the cells, and then the cells were stimulated with 500 μM sodium hypochlorite.

HL-60 cells [1] = experiment: Intracellular retentivity of reaction products of APF and APC-AM in HL-60 cells by FACS; type: cell-based; settings: 10 μM loaded 60 minutes, 100 μM hydrogen peroxide 15 minutes
Protocol: Intracellular retentivities of the reaction products produced from APF and APC with the reactive oxygen species were compared in a similar manner. APF and APC-AM (10 μM, 1.0% dimethylformamide (cosolvent) for the both) were loaded on the HL-60 cells for 60 minutes by adding them to the medium of the cells, and then the cells were stimulated with 100 μM hydrogen peroxide for 15 minutes. Then, fluorescence intensity was periodically measured (0 minute, 30 minutes, 60 minutes) by FACS. In FIG. 6, the graphs (A) to (C) show the results obtained with APF, and the graphs (D) to (F) show the results obtained with APC-AM. The graphs (A) and (D) show the results obtained immediately after the hydrogen peroxide stimulation, (B) and (E) show the results obtained 30 minutes after the stimulation, and (C) and (F) show the results obtained 60 minutes after the stimulation.

[2] = Fluorescence quantum yield (Φf); type: physicochemical
Protocol: (§1) The compound 5 (APC) is a substantially non-fluorescent (Φf=0.007) substance having a moiety that specifically reacts with reactive oxygen species in the molecule. This substance specifically reacts with reactive oxygen species, and thereby becomes calcein to emit fluorescence. The tetracetoxymethyl ester of this calcein and diacetyl ester of fluorescein were taken up by HL-60 cells, and intracellular retentivity of calcein and fluorescein was evaluated.

HL-60 cells [3] = experiment: Intracellular retentivity of calcein and fluorescein taken up by HL-60 cells as esters; type: cell-based
Protocol: as §1

[4] = pKa comparison of calcein and fluorescein; type: physicochemical

Compound: CC(=O)OCOC(=O)CN(CC(=O)OCOC(C)=O)Cc1c(O)ccc2c1Oc1c(ccc(Oc3ccc([N+](=O)[O-])cc3)c1CN(CC(=O)OCOC(C)=O)CC(=O)OCOC(C)=O)C21OC(=O)c2ccccc21 (centres unmarked) [APC-AM, 3-Hydroxy-4,5-bis[N,N′-di(carboxymethyl)aminomethyl]-6-(4′-nitro)phenoxyfluorescein tetracetoxymethyl ester]
Fluorescence in HeLa cells after sodium hypochlorite stimulation (HeLa cells): Extremely intense fluorescence

Compound: Nc1ccc(Oc2ccc3c(-c4ccccc4C(=O)O)c4ccc(=O)cc-4oc3c2)cc1 [APF, aminophenylfluorescein]
Fluorescence intensity by FACS immediately after hydrogen peroxide stimulation (HL-60 cells [1]; 0 minute): increase of fluorescence intensity was observed | Fluorescence intensity by FACS 30 and 60 minutes after stimulation (intracellular retentivity of reaction product) (HL-60 cells [1]; 30 and 60 minutes): detection thereof became difficult after 30 minutes

Fluorescence quantum yield Φf [2]: 0.793 | pKa [4]: ~5.4
Compound: O=C(O)CN(CC(=O)O)Cc1cc2c(cc1O)Oc1cc(O)c(CN(CC(=O)O)CC(=O)O)cc1C21OC(=O)c2ccccc21 [calcein]
Fluorescence intensity in the HL-60 cells over time (intracellular retentivity) (HL-60 cells [3]; after 60 minutes, loaded as tetracetoxymethyl ester): hardly decreased

Compound: O=C1OC2(c3ccc(O)cc3Oc3cc(O)ccc32)c2ccccc21 [fluorescein]
Fluorescence intensity in the HL-60 cells over time (intracellular retentivity), level remaining (HL-60 cells [3]; after 15 minutes, loaded as diacetyl ester, fraction of the starting intensity): 1/10 | pKa [4]: 6.4
